Measured values published in publication PMC7376443 (Bioorganic & medicinal chemistry letters, 2020).

How the values were obtained:
Assay type in all cases: biochemical
[1] = molecular target: T1, ChTS-DHFR (thymidylate synthase-dihydrofolate reductase), TS activity (Cryptosporidium hominis, UniProt A0A0S4TER9); assay: radiolabeled CH2H4F to H2F turnover by HPLC, single concentration […]
[2] = molecular target: T1, ChTS-DHFR (thymidylate synthase-dihydrofolate reductase), TS activity
[3] = molecular target: human TS (thymidylate synthase, hTS) (Homo sapiens, UniProt P04818); assay: TS activity assay, enzyme preincubated with compound without dUMP, […]
human TS (thymidylate synthase, hTS), sequence (P04818 2-313): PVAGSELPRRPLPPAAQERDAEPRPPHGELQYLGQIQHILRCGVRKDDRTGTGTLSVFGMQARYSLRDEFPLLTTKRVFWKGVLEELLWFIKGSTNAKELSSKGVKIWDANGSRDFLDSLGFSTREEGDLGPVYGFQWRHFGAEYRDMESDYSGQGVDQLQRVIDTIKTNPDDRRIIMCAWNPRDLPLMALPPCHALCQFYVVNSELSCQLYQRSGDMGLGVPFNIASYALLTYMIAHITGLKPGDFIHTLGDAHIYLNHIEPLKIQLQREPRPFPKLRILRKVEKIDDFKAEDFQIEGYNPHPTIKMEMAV

Row | Substance | % Inhibition of ChTS Activity at 500 μM [1] | IC50 [2] [µM] | % inhibition at 500 uM [3]
1 | HTS 00967 [compound 10] | 55 ± 1 | – | –
2 | CD 11057 [compound 7] | 46.0 ± 0.8 | – | –
3 | HTS 00950 [compound 6] | – | 172 ± 11 | ~ 50
4 | HTS 03850 [compound 2] | 76 ± 9 | – | –
